How the values were obtained:
TTR = TTR (Homo sapiens (Human), UniProt P02766); experiment: Determination of IC50 using the FP assay (HTS format, probe 5); assay type: binding; conditions: read-out: IC50 (compound concentration that resulted in 50% decrease in the FP signal); dose-response FP assay in duplicate
WT TTR = WT TTR (Homo sapiens (Human), UniProt P02766); experiment: Acid-mediated fibril formation assay for TTR amyloidogenesis (turbidity); conditions: TTR 3.6 μM; for % fibril formation / TTR aggregation inhibition (in words): ligand 7.2 μM, 72 h; for % fibril formation: pH 4.4, 37° C., no ligand = 100%; for inhibition of fibril formation: substoichiometric: ligand 3.0 μM, monitored over 5 days
Experimental: The efficacy of each compound to inhibit TTR amyloidogenesis was determined by monitoring the turbidity of TTR aggregation at acidic pH, as described previously. […] The final 1 ml sample mixture was vortexed, then incubated at 37° C. for 72 hours, after which the sample was vortexed and the optical density was measured at 400 nm on a Beckman DU® 640 spectrophotometer. […] The optical density was also corrected for the absorption of all test compounds in the absence of TTR. […] The optical density (400 nm) was measured as described above at 0, 24, 48, 72, 96, and 120 hours. All assays were performed in triplicate and the average values obtained are presented.
TTR was preincubated with small molecules for 30 min at room temperature before amyloidosis was initiated (lowering pH to 4.4, incubation at 37° C.). […] The amyloidogenesis inhibition efficacy of each compound was determined by monitoring the turbidity of TTR (400 nm). The extent of TTR amyloidogenesis was quantitated at a fixed time point (72 h). All amyloid fibril formation data was normalized to TTR amyloidogenesis in the absence of inhibitor, assigned to be 100% fibril formation. […] The aggregation inhibition was monitored over 5 days using the acid-mediated fibril formation assay (compared to 3 days for the fixed time point described above) (FIG. 5B).

[1] = test system: WT TTR cytotoxicity in human IMR-32 neuroblastoma cells; experiment: Inhibition of WT TTR cytotoxicity in IMR-32 cells; conditions: TTR and ligand 8 μM, 24 h
Experimental: (§1) The human cardiac cell line AC16 was maintained in DMEM:F12 (1:1) supplemented with 10% FBS, 1 mM Hepes buffer, 2 mM L-glutamine, 100 units/mL penicillin and 100 μg/mL streptomycin. Two to 4-day-old cultures (˜70% confluent) were used for the experiments.
(§2) Recombinant WT TTR purified in the cold in HBSS (Mediatech, Manassas, Va.) was used as a cytotoxic insult to IMR-32 cells and the amyloidogenic V122I TTR was used as cytotoxic insult to cardiac AC16 cells. Candidate compounds (16 mM in DMSO) were diluted 1:1000 with WT TTR or V122I TTR (16 mM in HBSS, filter sterilized) or with HBSS only. The mixtures were vortexed and incubated for 24 h at 4° C. WT TTR or V122I TTR (16 mM in HBSS) containing the same amount of DMSO than TTR/candidate compound mixtures was prepared in parallel and incubated under the same conditions.
(§3) The neuroblastoma IMR-32 and the cardiac AC16 cells were seeded in black wall, clear bottom, tissue culture treated 96-well plates (Costar) at a density of 6,000 cells/well and 250 cells/well, respectively in Opti-mem supplemented with 5% FBS, 1 mM Hepes buffer, 2 mM L-glutamine, 100 units/mL penicillin and 100 μg/mL streptomycin, 0.05 mg/mL CaCl2 and incubated overnight at 37° C. The medium was then removed and replaced immediately by the TTR/compound or HBSS previously diluted 1:1 in Opti-mem supplemented with 0.8 mg/mL BSA, 2 mM Hepes buffer, 4 mM L-glutamine, 200 units/mL penicillin, 200 μg/mL streptomycin and 0.1 mg/mL CaCl2. The cells were incubated 24 h at 37° C. after which cell viability was measured.
(§4) Cell viability of the cells treated with TTR or TTR/candidate compound was evaluated by a resazurin reduction assay. Briefly, 10 μL/well of resazurin (500 mM, PBS) was added to each well and incubated for 2-3 h at 37° C. Viable cells reduce resazurin to the highly fluorescent resorufin dye, which is quantitated in a multiwell plate reader (Ex/Em 530/590 nm, Tecan Safire2, Austria). Cell viability was calculated as percentage of fluorescence relative to cells treated with vehicle only (100% viability) after subtraction of blank fluorescence (wells without cells). All experimental conditions were performed at least in six replicates. Averages and SEM corresponding to 2 independently performed experiments were calculated.
(§5) The compounds under study were pre-incubated with WT TTR or V122I TTR for 24 h at 4° C. at equimolar concentrations (8 μM) and added to IMR-32 cells or AC16 cells, respectively. Cell viability was measured after 24 h by a resazurin reduction assay. […] The percentage of viable cells was calculated relative to cells treated with vehicle only (cell culture media and DMSO)—which were assigned to be 100% viable.

[2] = test system: V122I TTR cytotoxicity in human AC16 cardiac cells; experiment: Inhibition of V122I TTR cytotoxicity in AC16 cells; conditions: TTR and ligand 8 μM, 24 h
Experimental: as §1, §2, §3, §4, §5

human wild type TTR = human wild type TTR (Homo sapiens (Human), UniProt P02766); experiment: Isothermal titration calorimetry (ITC) of ligands against TTR; assay type: binding; conditions: for TΔS binding entropy / ΔG binding free energy / ΔH binding enthalpy: ITC; for Kd: TTR 2 μM titrated with ligand 25 μM, 25° C., one-to-one binding model, read-out: Kd (ITC)
Experimental: Calorimetric titrations were carried out on a VP-ITC calorimeter (MicroCal, Northhampton, Mass.). […] Prior to each titration, all samples were degassed for 10 minutes. The initial injection of 3.0 μL was followed by 30 injections of 8.0 μL each (25° C.) to the point that TTR was fully saturated with ligand. Integration of the thermogram after subtraction of blanks yielded a binding isotherm that was analyzed with MicroCal Origin 5.0 software.

| Compound | IC50 (TTR) [µM] | % fibril formation (WT TTR) [%] | further results |
| --- | --- | --- | --- |
| COc1ccc(/C=N/n2c(S)nnc2C(F)(F)F)cc1O | 0.277 | 0.43 ± 0.61 |  |
| COc1c(Br)cc(/C=C2\SC(=O)NC2=O)cc1Br | 0.301 | 0.37 ± 0.53 |  |
| CCOc1ccccc1-c1nc(-c2ccncc2)no1 |  | 0.00 ± 0.00 |  |
| CC1(C)NC(=O)C(C#N)=C(SCc2ccccc2)S1 | 0.433 | 0.52 ± 0.73 |  |
| Cc1[nH]c2ccccc2c1C(C#N)(C#N)C1C(=O)c2ccccc2C1=O | 0.586 | 5.77 ± 3.91 |  |
| O=c1cc(-c2ccc(O)cc2)oc2cc(O)cc(O)c12 | 0.653 | 10.07 ± 0.53 |  |
| O=C1NC(=O)/C(=C/c2cccc(C(F)(F)F)c2)S1 | 0.815 | 1.92 ± 1.08 |  |
| O=C1NC(=O)/C(=C/c2cccc3ccccc23)S1 | 0.842 | 3.22 ± 0.34 |  |
| O=C(O)c1cc2nc(-c3ccc(Cl)c(Cl)c3)cc(C(F)(F)F)n2n1 | 2.58 | 1.81 ± 2.56 |  |
| COc1ccccc1CC(=O)c1ccc(O)cc1O | 2.66 | 9.60 ± 1.58 |  |
| Cc1ccccc1/C=C1\SC(=O)NC1=O | 3.35 | 10.44 ± 4.88 |  |
| O=c1c(Oc2ccccc2Br)coc2cc(O)ccc12 | 3.71 | 13.91 ± 1.28 |  |
| O=C(O)Cc1ccccc1Nc1c(O)cccc1Cl | 3.74 | 11.56 ± 0.72 |  |
| O=C1NC(=O)/C(=C/c2ccc(-c3ccc(Cl)c(C(=O)O)c3)o2)S1 | 3.93 | 13.90 ± 5.52 |  |
| O=c1c(Oc2ccccc2Cl)c(C(F)(F)F)oc2cc(O)ccc12 | 4.22 | 24.36 ± 1.11 |  |
| N#CC1=C(SCc2ccccc2)SC(c2ccccc2O)NC1=O (stereo not shown) | 4.79 | 3.17 ± 4.48 |  |
| CSC1=NSC2=NC(=O)/C(=C\c3cccc4ccccc34)C(=N)N12 | 4.88 | 28.77 ± 6.36 |  |
| CCOc1cc(C2NC(C(=O)O)CS2)cc(Br)c1OCc1ccccc1C (stereo not shown) | 4.93 | 17.57 ± 4.81 |  |
| O=C1C(Br)=CC(=NS(=O)(=O)c2ccccc2)C=C1Br | 5.41 | 43.25 ± 4.35 |  |

| Compound | IC50 (TTR) [µM] | % fibril formation (WT TTR) [%] | further results |
| --- | --- | --- | --- |
| Oc1nc(O)c2sc3nc(C(F)(F)F)cc(Cc4ccccc4)c3c2n1 | 5.6 | 35.32 ± 3.69 |  |
| O=C1NC(=O)/C(=C/c2ccccc2OCc2ccccc2)S1 | 5.8 | 38.38 ± 3.33 |  |
| CC1=C(CCC(=O)O)C(=O)N2c3ccccc3NC2C1C#N (stereo not shown) | 8.69 | 46.24 ± 1.33 |  |
| COc1cc(/C=C2\C(=N)N3N=C(S(C)(=O)=O)SC3=NC2=O)ccc1OCc1ccccc1C | 9.76 | 48.25 ± 0.68 |  |
| O=C(NCc1cc(Br)cc(Br)c1O)c1ccccc1 | 10 | 50.96 ± 1.98 |  |
| CC(=O)Nc1ccc(Nc2nc3ccccc3nc2NS(=O)(=O)c2ccc(C)cc2)cc1 | 10.6 | 49.43 ± 4.26 |  |
| Cc1nc2c(C(=O)NCCC(C)C)cnn2c(O)c1Cc1ccccc1F | 11 | 47.39 ± 1.94 |  |
| O=[N+]([O-])c1cc(O)c(O)c([N+](=O)[O-])c1 [3,5-dinitrocatechol, reference compound] |  |  | prevention of WT TTR-induced cytotoxicity (in words) [1]: poor inhibitor; TTR aggregation inhibition (in words) (WT TTR): potent aggregation inhibitors; prevention of V122I TTR-induced cytotoxicity (in words) [2]: poor inhibitor |
| NCCOCCOCCOc1c(Cl)cc(Nc2ccccc2C(=O)O)cc1Cl [Compound 4, 2-(4-(2-(2-(2-aminoethoxy)ethoxy)ethoxy)-3,5-dichlorophenylamino)benzoic acid] |  |  | TΔS binding entropy (human wild type TTR): 0.33 ± 0.042 kJ/mol; ΔG binding free energy (human wild type TTR): -37.4 ± 0.586 kJ/mol; ΔH binding enthalpy (human wild type TTR): -37 ± 3.97 kJ/mol; Kd (human wild type TTR): 0.285 µM |
| O=C(O)c1ccccc1Nc1cc(Cl)c(OCCOCCOCCNC(=S)Nc2ccc3c(c2)C(=O)OC32c3ccc(O)cc3Oc3cc(O)ccc32)c(Cl)c1 [Compound 5, 2-(3,5-dichloro-4-(2-(2-(2-(3-(3′,6′-dihydroxy-3-oxo-3H-spiro[isobenzofuran-1,9′-xanthene]-5-yl)thioureido)ethoxy)ethoxy)ethoxy)phenylamino)benzoic acid] |  |  | decrease in binding affinity to TTR on attaching FITC to 4 (human wild type TTR; 5 relative to 4): ~3 fold; TΔS binding entropy (human wild type TTR): 6.02 ± 0.29 kJ/mol; ΔG binding free energy (human wild type TTR): -34.7 ± 1.88 kJ/mol; ΔH binding enthalpy (human wild type TTR): -28.7 ± 1.51 kJ/mol; Kd (human wild type TTR): 0.82 µM |
| Cc1n[nH]c(C)c1CCCOc1ccccc1F [Compound 7] |  |  | prevention of WT TTR-induced cytotoxicity (in words) [1]: completely prevented TTR-induced cytotoxicity; inhibition of fibril formation (WT TTR): > 75%; prevention of V122I TTR-induced cytotoxicity (in words) [2]: completely prevented TTR-induced cytotoxicity; TΔS binding entropy (human wild type TTR): -0.628 ± 0.0084 kJ/mol; ΔG binding free energy (human wild type TTR): -37.1 ± 0.711 kJ/mol; ΔH binding enthalpy (human wild type TTR): -37.7 ± 0.544 kJ/mol; Kd (human wild type TTR): 0.321 µM |
| Cc1n[nH]c(C)c1CCc1nc2c3ccccc3[nH]c(=S)n2n1 [Compound 15] |  |  | prevention of WT TTR-induced cytotoxicity (in words) [1]: completely prevented TTR-induced cytotoxicity; inhibition of fibril formation (WT TTR): > 75%; prevention of V122I TTR-induced cytotoxicity (in words) [2]: completely prevented TTR-induced cytotoxicity |
| O=C(O)c1cccnc1Nc1cccc(C(F)(F)F)c1 [Niflumic acid, niflumic acid, reference compound] |  |  | TTR aggregation inhibition (in words) (WT TTR): potent aggregation inhibitors; prevention of V122I TTR-induced cytotoxicity (in words) [2]: relatively poor inhibitor |
| O=C(O)c1cccnc1Nc1cccc(C(F)(F)F)c1 [drawing 60] |  | 4.83 ± 1.19 |  |
| Cc1n[nH]c(C)c1CCCOc1ccccc1F [drawing 61] | 0.296 | 0.75 ± 1.06 |  |
| O=[N+]([O-])c1cc(O)c(O)c([N+](=O)[O-])c1 [drawing 68] |  | 1.08 ± 0.59 |  |
| O=C(c1cc(O)c(O)c([N+](=O)[O-])c1)c1ccccc1F [drawing 69] | 0.755 | 0.32 ± 0.45 |  |
| CN1C(=N)NC(=O)/C1=C/c1cc(Br)c(O)c(Br)c1 [drawing 72] | 1.15 | 0.00 ± 0.00 |  |
| Cc1n[nH]c(C)c1CCc1nc2c3ccccc3[nH]c(=S)n2n1 [drawing 73] | 1.31 | 0.00 ± 0.00 |  |

Source: patent US8877795B2, “Identification of stabilizers of multimeric proteins” (The Board of Trustees of the Leland Stanford Junior …, priority 2010, dated 2014)
